The subject of one series is P. aeruginosa: AMT0027L. The series is described as follows: Viability after HOSCN exposure. To be noted: late disease antibiotic-resistant CF isolate.
Series [1] has as its system Human bronchiolar lung cells (16HBE). In words: Lung cell viability (LDH release) after HOSCN generation. The conditions noted are these: 2 hrs, about 120 μM/hr, viability 24 hrs later. Format: cell-based. The procedure: (§1) FIGS. 4A-4B. […] Studies were conducted under similar conditions that generated about 120 μM/hr of either HOCl or HOSCN. (FIG. 4A) Human bronchiolar lung cells (16HBE) or (FIG. 4B) Pseudomonas aeruginosa (PA01) were treated for 2 hrs with glucose oxidase (GOX) system (generates H2O2), enzyme alone (MPO or LPO), or full system (enzyme+GOX), or full system with […]. Viability was assessed 24 hrs later by lactate dehydrogenase release for lung cells or determination of colony forming units (CFUs) for bacteria.

In the next series the test system is AMT-9. In words: Bacterial sensitivity towards HOSCN killing. Format: cell-based, Pseudomonas aeruginosa (PA). The conditions noted are these: AMT-9, CF sputum isolate; HOSCN flux for 2 hours, GOX/LPO/SCN system, pH 7.4. As for the experimental part:
(§2) FIGS. 11A-11D. […] A lactoperoxidase (LPO) system was used to generate increasing fluxes of either HOSCN or HOSeCN in presence of 400 μM of either ^−SCN or ^−SeCN. LPO in the presence of a hydrogen peroxide generating system (glucose oxidase, GOX) can convert both thiocyanate and selenocyante to their respective hypopseudohalous acid species (HOSCN and HOSeCN) that are biocides. […] Bacterial inoculums (10^6 colony forming units, CFU) were incubated with host defense system for 2 hours at room temperature and bacteria were plated on LB agar plates and cell viability was determined by dilution and counting CFUs.
(§3) LPO in the presence of a hydrogen peroxide generating system (glucose oxidase, GOX) can convert both thiocyanate and selenocyante to their respective hypopseudohalous acid species (HOSCN and HOSeCN) that are biocides. […] Bacterial inoculums (10^6 colony forming units, CFU) were incubated with host defense system for 2 hours at room temperature and bacteria were plated on LB agar plates and cell viability was determined by dilution and counting CFUs. Lethal concentrations that kill 50% of bacteria (LC50) were determined by non-linear curve fitting the data.
(§4) Bacteria were incubated for 2 hour with LPO, ^−SCN or SeCN, glucose and increasing amounts of GOX. The flux (HOX) of either HOSCN or HOSeCN was determined from standard curves of GOX/LPO and either HOSCN or HOSeCN. LC50 values were determined by curve fitting the data with nonlinear regression of log (agonist) vs normalized response.

In a further series the test system is PAO1. The series is described as follows: Bacterial sensitivity towards HOSCN killing. To be noted: HOSCN flux for 2 hours, GOX/LPO/SCN system, pH 7.4. Format: cell-based, Pseudomonas aeruginosa (PA). As for the experimental part: as §2, §3, §4
The next series has as its system PA-T. The series is described as follows: Bacterial sensitivity towards HOSCN killing. Type of series: cell-based, Pseudomonas aeruginosa (PA). The conditions noted are these: CF sputum isolate, HOSCN flux for 2 hours, GOX/LPO/SCN system, pH 7.4. As for the experimental part: as §2, §3, §4
The subject of a further series is PA 39. In words: Bacterial sensitivity towards HOSCN killing. To be noted: PA 39, CF sputum isolate; HOSCN flux for 2 hours, GOX/LPO/SCN system, pH 7.4. Format: cell-based, Pseudomonas aeruginosa (PA). The procedure: as §2, §3, §4
The test system of the next series is PA-X. In words: Bacterial sensitivity towards HOSCN killing. To be noted: CF sputum isolate, HOSCN flux for 2 hours, GOX/LPO/SCN system, pH 7.4. Type of series: cell-based, Pseudomonas aeruginosa (PA). As for the experimental part:
as §2, §3, §4

The target of series [2] is recombinant E. coli Cys-TrxR (Escherichia coli, UniProt P0A9P4). The series is described as follows: Kinetic analysis of HOSCN metabolism and inhibition. Type of series: biochemical. An excerpt: FIGS. 3A-3B. Kinetic analysis of HOSCN metabolism by recombinant mouse Sec-TrxR and recombinant E. coli Cys-TrxR. […] Sec-TrxR forms that lack a selenocysteine (Sec489Cys) or truncated by the last 8 amino acids (D8) had diminished activity.
Chain of recombinant E. coli Cys-TrxR (P0A9P4 whole entry, the tested form may be a part): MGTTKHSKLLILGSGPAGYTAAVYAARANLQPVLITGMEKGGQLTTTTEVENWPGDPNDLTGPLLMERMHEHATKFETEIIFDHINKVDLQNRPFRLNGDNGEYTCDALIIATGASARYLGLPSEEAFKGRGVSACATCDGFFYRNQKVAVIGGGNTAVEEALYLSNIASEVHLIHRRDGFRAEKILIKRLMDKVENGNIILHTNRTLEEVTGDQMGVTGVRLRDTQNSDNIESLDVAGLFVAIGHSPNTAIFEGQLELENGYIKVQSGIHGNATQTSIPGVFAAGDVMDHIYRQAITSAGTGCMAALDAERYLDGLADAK

The test system of series [3] is P. aeruginosa: AMT0105L. The series is described as follows: Viability after HOSCN exposure. To be noted: late disease antibiotic-resistant CF isolate.
In another series the test system is MRSA 45. In words: Bacterial sensitivity towards HOSCN killing. Format: cell-based, methicillin-resistant Staphylococcus aureus (MRSA). The conditions noted are these: MRSA 45, CF sputum isolate; HOSCN flux for 2 hours, GOX/LPO/SCN system, pH 7.4. As for the experimental part: as §2, §3, §4
Another series has as its system MRSA 43. The series is described as follows: Bacterial sensitivity towards HOSCN killing. Format: cell-based, methicillin-resistant Staphylococcus aureus (MRSA). To be noted: MRSA 43, CF sputum isolate; HOSCN flux for 2 hours, GOX/LPO/SCN system, pH 7.4. The procedure: as §2, §3, §4
The next series concerns MRSA 44. In words: Bacterial sensitivity towards HOSCN killing. Format: cell-based, methicillin-resistant Staphylococcus aureus (MRSA). The conditions noted are these: MRSA 44, CF sputum isolate; HOSCN flux for 2 hours, GOX/LPO/SCN system, pH 7.4. The procedure: as §2, §3, §4
The test system of the next series is MRSA 46. The series is described as follows: Bacterial sensitivity towards HOSCN killing. Type of series: cell-based, methicillin-resistant Staphylococcus aureus (MRSA). To be noted: MRSA 46, CF sputum isolate; HOSCN flux for 2 hours, GOX/LPO/SCN system, pH 7.4. As for the experimental part: as §2, §3, §4
Series [4] relates to Pseudomonas aeruginosa (PA01). The series is described as follows: Bacterial viability (CFU) after HOSCN generation. Format: cell-based. To be noted: 2 hrs, about 120 μM/hr. As for the experimental part:
as §1

Series [5] has as its system Human bronchial epithelial (16HBE) cells. In words: HOSCN reductase activity. To be noted: human 16HBE cells.
In the next series the test system is P. aeruginosa: AMT0145L. The series is described as follows: HOSCN reductase activity.
In series [6] the test system is P. aeruginosa: AMT0105L. The series is described as follows: HOSCN reductase activity.
Series [7] is described as follows: Viability after HOSCN exposure. The conditions noted are these: human, human bronchial epithelial (16HBE) cells.

The IC50 is the midpoint of a concentration-inhibition curve. As usually defined, the viability is a read-out of living cells in per cent, often relative to untreated cells. Lower therefore signals more harm to the cells.

Take `N#CSO` [HOSCN, hypothiocyanite]: the “Viability (%)” value in the series with P. aeruginosa: AMT0027L and with P. aeruginosa: AMT0105L [3] was 0% throughout. Besides, in series [1], the Lung cell viability result is “spares host lung epithelial cells”. Moreover, the “HOSCN IC50” value turned out to be 5 µM/h in the series on AMT-9; 18 µM/h with PAO1; 48 µM/h in the series on PA-T; 5 µM/h in the series on PA 39; 13 µM/h in the series with PA-X; 24 µM/h with MRSA 45. The “HOSCN IC50” value stood at 450 µM/h in the series with MRSA 43, 260 µM/h in the series on MRSA 44 and 10 µM/h with MRSA 46. The IC50 in [2] stood at 2.75 µM. Also, the HOSCN metabolism activity result in series [2] (similar conditions) is on record as “no measurable activity”. Besides, in series [4], the “Bacterial viability (CFU)” value is on record as “killing bacteria”. In addition, the “Apparent Vmax (HOSCN reductase activity)” value in series [5] is 14.7 ± 1.0 nmol/mg/min; with P. aeruginosa: AMT0145L, 1.4 ± 0.1 nmol/mg/min; in the series with P. aeruginosa: AMT0105L [6], “ND^c (No activity detected. Limit of detection = 0.5 nmol mg^−1 min^−1)”. The viability in series [7] is 96.3 ± 1.6%.

The values are drawn from patent US11986450B2, “Methods and compositions for treating infection and inflammation with selenocyanate” (National Jewish Health, priority 2017, dated 2024).
